Entries after “also recorded” stand apart in the source; their conditions may differ. Where two headings read alike, the source gives them in different places.
Columns and labels:
[1] = molecular target: HIV-1 RNase H; design: method as in ref 17-25, 27-29 (per compound as in Figure 1 legend); settings: known allosteric RNHIs, 27-29 (per compound as in Figure 1 legend), cited from earlier work
[2] = test system: HIV-1 RDDP; design: method as in ref 17-21, 27-29 (per compound as in Figure 1 legend); settings: known allosteric RNHIs; 27-29 (per compound as in Figure 1 legend); cited from earlier work
[3] = test system: HIV-1 replication; settings: cited from earlier work
[4] = test system: cell growth; design: method as in PMID 17184135, PMID 23631411; settings: concentration that inhibits cell growth by 50%; read-out: CC50 (cytotoxicity); cited from earlier work
[5] = molecular target: HIV-1 RT-associated RNase H (Human immunodeficiency virus type 1 group M subtype B, UniProt P03366); assay: biochemical; type: biochemical
[6] = molecular target: HIV-2 RNase H; design: method as in PMID 18831589; settings: cited from earlier work
[7] = molecular target: HIV-1 RT-associated RDDP (Human immunodeficiency virus type 1 group M subtype B, UniProt P03366); assay: biochemical; type: biochemical
[8] = test system: HIV-1 (IIIB strain); type: cell-based; settings: acutely infected MT-4 cells
[9] = test system: HIV-2 (ROD strain); assay: Anti-HIV-2 activity in acutely infected MT-4 cells (MTT); type: cell-based
[10] = in vitro; settings: human
[11] = 28 (per compound as in Figure 1 legend)

Structure (SMILES): COc1ccc2ccccc2c1/C=N/NC(=O)c1ccc(O)c(O)c1 [Compound 1]
- IC50 [1]: 500 nM
- IC50 [2]: > 25000 nM
- EC50 [3, 11]: 5500 nM
- CC50 [4]: > 100000 nM

Structure (SMILES): NC(=O)c1c(N)sc2c1CCCCC2 [Compound 5]
- IC50 [5]: 4000 ± 500 nM
- IC50 [1]: 2000 to 2500 nM
- IC50 ([1]; listed as 5 (NSC727447)): 2000 nM
- IC50 [6]: 2000 to 2500 nM
- IC50 ([6]; listed as 5 (NSC727447)): 2500 nM
- EC50 (HIV-1 replication) [3, 11]: not active
- selectivity index (SI) ([3]; anti-HIV-1 activity vs cytotoxicity): 4

Structure (SMILES): O=c1[nH]c(-c2ccc(O)c(O)c2)nc2sc3c(c12)CCCCC3 [Compound 7]
- IC50 [1]: 290 nM
- EC50 [3, 11]: 1600 nM
- CC50 [4]: 6800 nM

Structure (SMILES): Cc1cc(-c2ccccc2)n2nc(NC(=O)c3ccc(O)c(O)c3)nc2n1 [Compound 12g, 3,4-Dihydroxy-N-(5-methyl-7-phenyl-[1,2,4]triazolo[1,5-a]pyrimidin-2-yl)benzamide]
- IC50 [5]: 800 ± 200 nM
- IC50 [7]: > 100000 nM
- anti-HIV-1 (IIIB strain) activity [8]: did not result in anti-HIV-1 activity in cellular context; also recorded: none of the compounds having RNase H inhibition showed anti-HIV activity at concentrations lower than those cytotoxic
- anti-HIV-2 (ROD strain) activity [9]: none of the compounds having RNase H inhibition showed anti-HIV activity at concentrations lower than those cytotoxic
- melting point: 285 to 288 °C
- CC50 at 5 days [10]: 112000 nM

From PMC7179434, “1,2,4-Triazolo[1,5-a]pyrimidines as a Novel Class of Inhibitors of the HIV-1 Reverse Transcriptase-Associated Ribonuclease H Activity” (Molecules, 2020)
